Legend:
Capivasertib = compound: C1CN(CCC1(C(=O)N[C@@H](CCO)C2=CC=C(C=C2)Cl)N)C3=NC=NC4=C3C=CN4 [Capivasertib]
Method in brief: (§1)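 After 24 hours at 37°C and 5% CO2 in 1536-well plates holding 7.5 μl of DMEM/F12 or RPMI with 10% FBS, cancer cell lines were dosed for 72 hours, with final DMSO typically 0.2%. Viability came from CellTiter-Glo 2.0 luminescence, scaled between the means of blank wells and DMSO wells. A non-linear mixed effects model fitted a two-parameter logistic curve to each dose response to give the single-agent IC50.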

Venetoclax = compound: CC1(C)CCC(CN2CCN(c3ccc(C(=O)NS(=O)(=O)c4ccc(NCC5CCOCC5)c([N+](=O)[O-])c4)c(Oc4cnc5[nH]ccc5c4)c3)CC2)=C(c2ccc(Cl)cc2)C1 [Venetoclax]; conditions: max 1 µM
Method in brief: as §1

AZD7648 = compound: Cc1cc2ncnn2cc1Nc1ncc2c(n1)n(C1CCOCC1)c(=O)n2C [AZD7648]; conditions: max 10 µM
Method in brief: as §1

SG3199 = compound: CC1=CN2[C@@H](C1)C=NC3=CC(=C(C=C3C2=O)OC)OCCCCCOC4=C(C=C5C(=C4)N=C[C@@H]6CC(=CN6C5=O)C)OC [SG3199]; conditions: max 0.001 µM
Method in brief: as §1

Selumetinib = compound: Cn1cnc2c(F)c(Nc3ccc(Br)cc3Cl)c(C(=O)NOCCO)cc21 [Selumetinib]
Method in brief: as §1

Prexasertib = compound: COc1cccc(OCCCN)c1-c1cc(Nc2cnc(C#N)cn2)n[nH]1 [Prexasertib]; conditions: max 1 µM
Method in brief: as §1

Gefitinib = compound: COc1cc2ncnc(Nc3ccc(F)c(Cl)c3)c2cc1OCCCN1CCOCC1 [Gefitinib]; conditions: max 10 µM
Method in brief: as §1

Taselisib = compound: Cc1nc(-c2cn3c(n2)-c2ccc(-c4cnn(C(C)(C)C(N)=O)c4)cc2OCC3)n(C(C)C)n1 [Taselisib]; conditions: max 10 µM
Method in brief: as §1

Doxorubicin = compound: COc1cccc2c1C(=O)c1c(O)c3c(c(O)c1C2=O)C[C@@](O)(C(=O)CO)C[C@@H]3O[C@H]1C[C@H](N)[C@H](O)[C@H](C)O1 [Doxorubicin]; conditions: max 1 µM
Method in brief: as §1

Savolitinib = compound: C[C@@H](c1ccc2nccn2c1)n1nnc2ncc(-c3cnn(C)c3)nc21 [Savolitinib]; conditions: max 1 µM
Method in brief: as §1

AZD1390 = compound: CC(C)n1c(=O)n(C)c2cnc3cc(F)c(-c4ccc(OCCCN5CCCCC5)nc4)cc3c21 [AZD1390]; conditions: max 0.3 µM
Method in brief: as §1

AZD6738 = compound: C[C@@H]1COCCN1C2=NC(=NC(=C2)C3(CC3)[S@](=N)(=O)C)C4=C5C=CNC5=NC=C4 [AZD6738]; conditions: max 10 µM
Method in brief: as §1

AZD5991 = compound: Cc1c2c(nn1C)CSCc1cc(n(C)n1)CSc1cc(c3ccccc3c1)OCCCc1c(C(=O)O)n(C)c3c-2c(Cl)ccc13 [AZD5991]; conditions: max 1 µM
Method in brief: as §1

Olaparib = compound: O=C(c1cc(Cc2n[nH]c(=O)c3ccccc23)ccc1F)N1CCN(C(=O)C2CC2)CC1 [Olaparib]
Method in brief: as §1

AZD0156 = compound: CN(C)CCCOc1ccc(-c2ccc3ncc4c(c3c2)n(C2CCOCC2)c(=O)n4C)cn1 [AZD0156]; conditions: max 3 µM
Method in brief: as §1

SN-38 = compound: CCc1c2c(nc3ccc(O)cc13)-c1cc3c(c(=O)n1C2)COC(=O)[C@]3(O)CC [SN-38]; conditions: max 0.3 µM
Method in brief: as §1

Dasatinib = compound: CC1=C(C(=CC=C1)Cl)NC(=O)C2=CN=C(S2)NC3=CC(=NC(=N3)C)N4CCN(CC4)CCO [Dasatinib]; conditions: max 2 µM
Method in brief: as §1

AZD8186 = compound: C[C@@H](Nc1cc(F)cc(F)c1)c1cc(C(=O)N(C)C)cc2c(=O)cc(N3CCOCC3)oc12 [AZD8186]; conditions: max 3 µM
Method in brief: as §1

Palbociclib = compound: CC(=O)c1c(C)c2cnc(Nc3ccc(N4CCNCC4)cn3)nc2n(C2CCCC2)c1=O [Palbociclib]; conditions: max 10 µM
Method in brief: as §1

AZD1775 = compound: C=CCn1c(=O)c2cnc(Nc3ccc(N4CCN(C)CC4)cc3)nc2n1-c1cccc(C(C)(C)O)n1 [AZD1775]; conditions: max 3 µM
Method in brief: as §1

Crizotinib = compound: C[C@@H](Oc1cc(-c2cnn(C3CCNCC3)c2)cnc1N)c1c(Cl)ccc(F)c1Cl [Crizotinib]; conditions: max 10 µM
Method in brief: as §1

AZD2811 = compound: CCN(CCO)CCCOc1ccc2c(Nc3cc(CC(=O)Nc4cccc(F)c4)[nH]n3)ncnc2c1 [AZD2811]; conditions: max 1 µM
Method in brief: as §1

AZD4320 = compound: CN(CC[C@H](CSC1=CC=CC=C1)NC2=C(C=C(C=C2)S(=O)(=O)NC(=O)C3=CC=C(C=C3)N4CCC(CC4)[C@H](C5=CC=CC=C5C6=CC=C(C=C6)Cl)O)S(=O)(=O)C(F)(F)F)CCO [AZD4320]; conditions: max 1 µM
Method in brief: as §1

Lapatinib = compound: CS(=O)(=O)CCNCc1ccc(-c2ccc3ncnc(Nc4ccc(OCc5cccc(F)c5)c(Cl)c4)c3c2)o1 [Lapatinib]; conditions: max 10 µM
Method in brief: as §1

AZD5153 = compound: COc1nnc2ccc(N3CCC(c4ccc(OCCN5CCN(C)C(=O)[C@H]5C)cc4)CC3)nn12 [AZD5153]; conditions: max 1 µM
Method in brief: as §1

Alisertib = compound: COc1cc(Nc2ncc3c(n2)-c2ccc(Cl)cc2C(c2c(F)cccc2OC)=NC3)ccc1C(=O)O [Alisertib]; conditions: max 10 µM
Method in brief: as §1

Trametinib = compound: CC(=O)Nc1cccc(-n2c(=O)n(C3CC3)c(=O)c3c(Nc4ccc(I)cc4F)n(C)c(=O)c(C)c32)c1 [Trametinib]; conditions: max 1 µM
Method in brief: as §1

Cell Line	IC50, cell viability 72 h (Capivasertib; max 10 µM)	IC50, cell viability 72 h (Venetoclax)	IC50, cell viability 72 h (AZD7648)	IC50, cell viability 72 h (SG3199)	IC50, cell viability 72 h (Selumetinib; max 10 µM)	IC50, cell viability 72 h (Prexasertib)	IC50, cell viability 72 h (Gefitinib)	IC50, cell viability 72 h (Taselisib)	IC50, cell viability 72 h (Doxorubicin)	IC50, cell viability 72 h (Savolitinib)	IC50, cell viability 72 h (AZD1390)	IC50, cell viability 72 h (AZD6738)	IC50, cell viability 72 h (AZD5991)	IC50, cell viability 72 h (Olaparib; max 10 µM)	IC50, cell viability 72 h (AZD0156)	IC50, cell viability 72 h (SN-38)	IC50, cell viability 72 h (Dasatinib)	IC50, cell viability 72 h (AZD8186)	IC50, cell viability 72 h (Palbociclib)	IC50, cell viability 72 h (AZD1775)	IC50, cell viability 72 h (Crizotinib)	IC50, cell viability 72 h (AZD2811)	IC50, cell viability 72 h (AZD4320)	IC50, cell viability 72 h (Lapatinib)	IC50, cell viability 72 h (AZD5153)	IC50, cell viability 72 h (Alisertib)	IC50, cell viability 72 h (Trametinib)	IC50, cell viability 72 h (Capivasertib; max 3 µM)	IC50, cell viability 72 h (Selumetinib; max 3 µM)	IC50, cell viability 72 h (Olaparib; max 3 µM)
MEL-JUSO (Melanoma)	> 10000 nM	> 1000 nM	> 10000 nM	> 1 nM	> 10000 nM	125 nM	> 10000 nM	> 10000 nM	> 1000 nM	> 1000 nM	> 300 nM	> 10000 nM	> 1000 nM	> 10000 nM	> 3000 nM	> 300 nM	> 2000 nM	> 3000 nM	> 10000 nM	> 3000 nM	> 10000 nM	> 1000 nM	> 1000 nM	> 10000 nM	> 1000 nM	> 10000 nM	430 nM			
KYSE-180 (Esophageal Squamous Cell Carcinoma)	> 10000 nM	> 1000 nM	> 10000 nM	> 1 nM	> 10000 nM	22.3 nM	> 10000 nM	4520 nM	> 1000 nM	> 1000 nM	> 300 nM	5360 nM	642 nM	> 10000 nM	> 3000 nM	> 300 nM	1730 nM	> 3000 nM	> 10000 nM	440 nM	> 10000 nM	> 1000 nM	> 1000 nM	> 10000 nM	> 1000 nM	> 10000 nM	> 1000 nM			
NCI-H847 (Small Cell Lung Carcinoma)		> 1000 nM	5200 nM	> 1 nM		15.1 nM		2330 nM	281 nM			901 nM	665 nM	6860 nM	> 3000 nM	16 nM		1950 nM		143 nM		58.4 nM	15.6 nM			10.1 nM	> 1000 nM	> 3000 nM	> 3000 nM	
KCL-22 (Chronic Myelogenous Leukemia)	> 10000 nM	> 1000 nM	> 10000 nM	> 1 nM	> 10000 nM	13.8 nM	> 10000 nM	> 10000 nM	335 nM	> 1000 nM	> 300 nM	927 nM	369 nM	> 10000 nM	> 3000 nM	37.9 nM	< 2 nM	> 3000 nM	> 10000 nM	525 nM	2010 nM	> 1000 nM	> 1000 nM	> 10000 nM	273 nM	8160 nM	915 nM			
P12-ICHIKAWA (T-Lymphoblastic Leukemia)	3170 nM	> 1000 nM	> 10000 nM		> 10000 nM	17.3 nM	> 10000 nM	> 10000 nM		> 1000 nM	> 300 nM	1020 nM	252 nM		> 3000 nM	1.61 nM	> 2000 nM	> 3000 nM	1600 nM	262 nM	2230 nM	15.4 nM	37.3 nM	> 10000 nM	89.1 nM	38.1 nM	> 1000 nM			> 3000 nM
MOLT-16 (T-Lymphoblastic Leukemia)	811 nM	308 nM	> 10000 nM	> 1 nM	> 10000 nM	11.2 nM	> 10000 nM	1110 nM	46.7 nM	> 1000 nM	> 300 nM	557 nM	51.5 nM	5600 nM	> 3000 nM	2.33 nM	> 2000 nM	> 3000 nM	420 nM	168 nM	1770 nM	12.4 nM	16.3 nM	6350 nM	76.2 nM	29.1 nM	> 1000 nM			
PANC-08-13 (Pancreatic Carcinoma)	> 10000 nM	> 1000 nM	> 10000 nM	> 1 nM	> 10000 nM	460 nM	> 10000 nM	6440 nM	> 1000 nM	> 1000 nM	> 300 nM	> 10000 nM	> 1000 nM	> 10000 nM	> 3000 nM	> 300 nM	> 2000 nM	> 3000 nM	> 10000 nM	> 3000 nM	> 10000 nM	> 1000 nM	> 1000 nM	> 10000 nM	350 nM	> 10000 nM	> 1000 nM			
TOV-112D (Ovarian Carcinoma)	> 10000 nM	> 1000 nM	> 10000 nM	> 1 nM	> 10000 nM	353 nM	> 10000 nM	> 10000 nM	262 nM	> 1000 nM	> 300 nM	6940 nM	> 1000 nM	> 10000 nM	> 3000 nM	8.03 nM	> 2000 nM	> 3000 nM	> 10000 nM	1260 nM	> 10000 nM	> 1000 nM	> 1000 nM	> 10000 nM	298 nM	4320 nM	> 1000 nM			

— the supplement of paper PMC11061612
